Data taken from EP1137645B1, “ALPHA-METHYLBENZYL-CONTAINING THIOUREA INHIBITORS OF HERPES VIRUSES CONTAINING A […] GROUP” (Wyeth, priority 1998, dated 2000).
≈ marks a conversion by molar mass, not a printed value. Read-outs that look alike come from different tables or passages of the source.

Tests used:
[1] = test system: HCMV recombinant mutant virus whose genome contains the prokaryotic beta-glucuronidase gene; assay: microbe, parasite or virus in culture; assay type: cell-based, human cytomegalovirus; settings: Human betaherpesvirus 5, Fibroblast
Method in brief: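 Human foreskin fibroblasts infected with HCMV recombinant carrying beta-glucuronidase under a viral promoter (e.g. RV145) in presence of compound. At 96 h post-infection, lysates assayed for beta-glucuronidase by colorimetric or fluorogenic substrate as replication readout; IC50 estimated from varying compound amounts.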

HSV- I = assay: HSV antiviral (ELISA) assay; assay type: cell-based; settings: read-out: IC50 (ug/ml) HSV
Procedure: Vero cells (ATCC #CCL-81) are plated on 96-well tissue culture plates at 3.5x10^4 cells per 100µl tissue culture DMEM (Dulbecco's modified Eagle media) supplemented with 2% fetal bovine serum (FBS) in each well. After overnight incubation @ 37°C (in 5% CO2) and 30 minutes prior to infection with HSV- I (multiplicity of infection equal to 0.006), cells are either untreated, or treated with test compound (multiple concentrations) or reference standard drug control. After approximately 24 hours post-infection incubation @ 37°C (in 5% CO2), cells are fixed for ELISA assay. The primary antibody is murine anti-HSV glycoprotein D monoclonal primary antibody and the secondary antibody is goat anti-mouse IgG linked to β-galactosidase. Thus the extent of viral replication is determined by assessing β-galactosidase activity by quantifying the generation of the 4-methyl umbelliferone fluorescent cleavage product after addition of the methyl umbelliferyl-β-D-galactoside (Sigma #M1633) substrate on a microfluorimeter (365nm for excitation and 450nm for emission). Antiviral activity (IC50) of the test compound is determined by comparing the flourescence obtained in absence of compound to that obtained in the presence of compound.

VZV strain Ellen = assay: VZV antiviral (ELISA) assay; assay type: cell-based
Method in brief: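 HFF cells infected with VZV Ellen at multiplicity below 0.1 overnight, then mixed infected/uninfected cells seeded with compound in DMEM/2% FBS and incubated three days at 37°C, 5% CO2.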

[2] = read-out: IC50 ug/ml HCMV, HCMV, human foreskin fibroblasts
[3] = Human alphaherpesvirus 3, HFF, read-out: % inhibition 10 ug/ml VZV
[4] = Human alphaherpesvirus 3, HFF, read-out: IC50 (ug/ml) VZV
[5] = Human alphaherpesvirus 3, HFF, read-out: IC50 (ug/ml) VZV, VZV strain Ellen, HFF cells, ELISA

| SMILES | IC50 [1, 2] [µg/mL] | IC50 (HSV- I; HSV- I, Vero cells, ELISA) [µg/mL] | inhibition at 10 µg/mL (VZV strain Ellen; [3]) [%] | IC50 (VZV strain Ellen; [4]) [µg/mL] | IC50 (HSV- I; Vero) [µg/mL] | IC50 (VZV strain Ellen; [5]) [µg/mL] | IC50 ([1]; read-out: IC50 ug/ml HCMV) [µg/mL] | inhibition at 10 µg/mL (VZV strain Ellen; Human alphaherpesvirus 3, read-out: % inhibition 10 ug/ml VZV, 10 ug/ml, VZV strain Ellen, HFF cells, ELISA) [%] | IC50 (VZV strain Ellen; Human alphaherpesvirus 3, VZV strain Ellen, HFF cells, ELISA, read-out: IC50 (ug/ml) VZV) [µg/mL] |
| --- | --- | --- | --- | --- | --- | --- | --- | --- | --- |
| COc1cc(OC)c(NC(=S)Nc2ccc(NC(=O)c3cccc([N+](=O)[O-])c3)cc2)cc1Cl [Example 135, N-{4-[3-(5-Chloro-2,4-dimethoxy-phenyl)-thioureido]-phenyl}-3-nitro-benzamide] | 5 (≈ 10.3 µM) | 1.5 (≈ 3.08 µM) | 0 | > 10 |  |  |  |  |  |
| COc1cc(OC)c(NC(=S)Nc2ccc(NC(=O)c3cccc(N(C)C)c3)cc2)cc1Cl [Example 136, N-{4-[3-(5-Chloro-2,4-dimethoxy-phenyl)-thioureido]-phenyl}-3-dimethylamino-benzamide] | 10 (≈ 20.6 µM) | 1 (≈ 2.06 µM) | 40 | > 10 |  |  |  |  |  |
| COc1cc(OC)c(NC(=S)Nc2ccc(NC(=O)c3cccc(NS(C)(=O)=O)c3)cc2)cc1Cl [Example 137, N-{4-[3-(5-Chloro-2,4-dimethoxy-phenyl)-thioureido]-phenyl}-3-methane-sulfony-amino-benzamide] | 10 (≈ 18.7 µM) |  | 72 |  | 10 (≈ 18.7 µM) | > 15 |  |  |  |
| COc1cc(OC)c(NC(=S)Nc2ccc(NC(=O)c3ccccc3C(F)(F)F)cc2)cc1Cl [Example 138, N-{4-[3-(5-Chloro-2,4-dimethoxy-phenyl)-thioureido]-phenyl}-2-trifluoro-methyl-benzamide] | 8 (≈ 15.7 µM) | 1 (≈ 1.96 µM) | 57 | > 10 |  |  |  |  |  |
| COc1cc(OC)c(NC(=S)Nc2ccc(NC(=O)c3ccccc3O)cc2)cc1Cl [Example 139, N-{4-[3-(5-Chloro-2,4-dimethoxy-phenyl)-thioureido]-phenyl}-2-hydroxy-benzamide] | 6 (≈ 13.1 µM) | 6 (≈ 13.1 µM) | 95 | 4 (≈ 8.73 µM) |  |  |  |  |  |
| COc1cc(OC)c(NC(=S)Nc2ccc(NC(=O)c3c(F)cccc3F)cc2)cc1Cl [Example 140, N-{4-[3-(5-Chloro-2,4-dimethoxy-phenyl)-thioureido]-phenyl}-2,6-difluoro-benzamide] | 4 (≈ 8.37 µM) | 0.15 (≈ 0.314 µM) | 65 | 10 (≈ 20.9 µM) |  |  |  |  |  |
| COc1cc(OC)c(NC(=S)Nc2ccc(NC(=O)c3ccccc3Cl)cc2)cc1Cl [Example 141, 2-Chloro-N-{4-[3-(5-chloro-2,4-dimethoxy-phenyl)-thioureido]-phenyl}-benzamide] | 6 (≈ 12.6 µM) | 0.25 (≈ 0.525 µM) | 40 | > 10 |  |  |  |  |  |
| COc1cc(OC)c(NC(=S)Nc2ccc(NC(=O)c3ccccc3Br)cc2)cc1Cl [Example 142, 2-Bromo-N-{4-[3-(5-chloro-2,4-dimethoxy-phenyl)-thioureido]-phenyl}-benzamide] |  | 0.4 (≈ 0.768 µM) |  |  |  |  | 10 (≈ 19.2 µM) | 51 | > 15 |
| COc1cc(OC)c(NC(=S)Nc2ccc(NC(=O)c3ccccc3[N+](=O)[O-])cc2)cc1Cl [Example 143, N-{4-[3-(5-Chloro-2,4-dimethoxy-phenyl)-thioureido]-phenyl}-2-nitro-benzamide] | > 10 | 1 (≈ 2.05 µM) | 68 | > 15 |  |  |  |  |  |
| COc1cc(OC)c(NC(=S)Nc2ccc(NC(=O)c3ccc4ccccc4c3)cc2)cc1Cl [Example 156, Naphthalene-2-carboxylic acid {4-[3-(5-chloro-2,4-dimethoxy-phenyl)-thioureido]-phenyl}-amide] | 10 (≈ 20.3 µM) | 2 (≈ 4.07 µM) | 17 | > 10 |  |  |  |  |  |
| COc1cc(OC)c(NC(=S)Nc2ccc(NC(=O)c3cccc4ccccc34)cc2)cc1Cl [Example 157, Naphthalene-1-carboxylic acid {4-[3-(5-chloro-2,4-dimethoxy-phenyl)-thioureido]-phenyl}-amide] | 8 (≈ 16.3 µM) | 0.9 (≈ 1.83 µM) | 32 | > 10 |  |  |  |  |  |
| CCOC(=O)Nc1cccc(C(=O)Nc2ccc(NC(=S)Nc3cc(Cl)c(OC)cc3OC)cc2)c1 [Example 180, (3-{4-[3-(5-Chloro-2,4-dimethoxy-phenyl)-thioureido]-phenylcarbamoyl}-phenyl)-carbamic acid ethyl ester] | 1.5 (≈ 2.84 µM) |  | 36 |  | 1.3 (≈ 2.46 µM) | > 10 |  |  |  |
